Measurements: patent EP3444615A1, “METHODS AND COMPOSITIONS FOR DIAGNOSTIC EVALUATION AND THERAPEUTIC CORRECTION OF THE NO-HAEM SIGNALLING PATHWAY(S) IN ANIMALS AND HUMANS” (Freiberg Instruments GmbH, priority 2017, dated 2019)

Assays:
[1] = tested on: human platelet-rich plasma (PRP); assay: U46619-induced platelet aggregation in platelet-rich plasma (aggregometer); format: cell-based
Procedure: Human venous blood was collected into a plastic polypropylene syringe containing sodium citrate. […] Platelet-rich-plasma (PRP) was prepared by centrifugation of the blood at 180g for 10 minutes at room temperature. The cloudy supernatant containing platelets was carefully removed with a pipette and transferred into a clean polypropylene tube and capped. Platelets were used for the experiments within 3 hr after blood collection. Platelet function studies were performed using a Dual Channel Aggregometer (Chronolog, Havertown). The PRP was adjusted to a platelet count of 200-300x 10^6/ml. Platelet aggregation was induced by the addition of a synthetic thromboxane A2 receptor agonist, U46619 (Cayman Chemical, Ann Arbor). PRP was placed in the aggregometer cuvette and continuously stirred at the rate of 1000 rpm. Platelet aggregation was determined by measuring the change in the optical density after addition of 1µM U46619. […]

[2] = tested on: anesthetized Wistar rat; assay: blood pressure study, subcutaneous injection; format: in vivo; conditions: after injection of sGC inhibitor methylene blue; Fig. 8
Procedure: For the pilot experiment, a male Wistar rat weighing 350g from Janvier Labs (Le Genest-Saint-Isle, France) was used. Rat was anaesthetised with isoflurane 1-2% (Baxter S.A.S, Maurepas, France) and analgesia was ensured by sufentanil (Mylan, Pittsburgh PA, USA) (0.1 µg/kg of body weight) administered subcutaneously. Animal was tracheotomised and lungs ventilated throughout the experiment. The ventilator (Harvard Rodent Ventilator 683, Harvard Instruments, South Natick, MA, USA) was set to maintain a PaCO2 of 40 mmHg and oxygen was added to maintain a PaO2 of 100 mmHg. The left femoral artery was used to measure mean arterial pressure (MAP) and heart rate (HR). The rectal temperature was continuously monitored. The NO-ferrohaem was injected at dose 2µmol/kg (s.c.) before and after the injection of methylene blue (1 µmol/kg; s.c.). In the end of experiment rat was euthanized using the lethal dose of Pentothal (100 mg/kg; i.v.).

[3] = tested on: isolated rat mesenteric arteries; assay: vasodilation in isolated mesenteric arteries
[4] = tested on: anesthetized rats; assay: blood pressure after intravenous bolus injection; format: in vivo; conditions: 10 nmol/kg
[5] = tested on: mouse femoral artery; assay: isometric tension study, wire myograph, pre-contracted artery rings; conditions: Fig. 7
Procedure: For the pilot experiment a male Swiss mouse (35 g) was sacrificed under ether anaesthesia. Femoral artery was isolated and cleaned from the adhering fat and connective tissue. Artery rings (2 mm) with endothelium were mounted in the organ chambers filled with Krebs solution continuously bubbled with 95% 02/ 5% CO2 at 37°C. The composition of the solution was as following: 119 mM NaCl, 4.7 mM KCI, 14.9 mM NaHCO3, 1.2 mM MgSO4.7H2O, 2.5 mM CaCl2, 1.18 mM KH2PO4, and 5.5 mM glucose; pH 7.4. Vascular reactivity was measured by the monitoring the changes in isometric tension using a wire myograph (Danish Myo Technology, Arhus, Denmark). After pre-contraction of arterial rings with 1µM 5-HT (serotonin; Sigma-Aldrich), the cumulative concentrations of NO-ferrohaem were added. In the end of experiment, an inhibitor of the soluble guanylate cyclase (ODQ; 1µM) was added.

[6] = target: T1, isolated sGC (Bos taurus, UniProt P16068); conditions: bare ferrohaem, in contrast to NO-ferrohaem; cited from earlier work
T1 construct: host or cells: bovine lung (from a cited title)
T1 sequence (P16068 1-619): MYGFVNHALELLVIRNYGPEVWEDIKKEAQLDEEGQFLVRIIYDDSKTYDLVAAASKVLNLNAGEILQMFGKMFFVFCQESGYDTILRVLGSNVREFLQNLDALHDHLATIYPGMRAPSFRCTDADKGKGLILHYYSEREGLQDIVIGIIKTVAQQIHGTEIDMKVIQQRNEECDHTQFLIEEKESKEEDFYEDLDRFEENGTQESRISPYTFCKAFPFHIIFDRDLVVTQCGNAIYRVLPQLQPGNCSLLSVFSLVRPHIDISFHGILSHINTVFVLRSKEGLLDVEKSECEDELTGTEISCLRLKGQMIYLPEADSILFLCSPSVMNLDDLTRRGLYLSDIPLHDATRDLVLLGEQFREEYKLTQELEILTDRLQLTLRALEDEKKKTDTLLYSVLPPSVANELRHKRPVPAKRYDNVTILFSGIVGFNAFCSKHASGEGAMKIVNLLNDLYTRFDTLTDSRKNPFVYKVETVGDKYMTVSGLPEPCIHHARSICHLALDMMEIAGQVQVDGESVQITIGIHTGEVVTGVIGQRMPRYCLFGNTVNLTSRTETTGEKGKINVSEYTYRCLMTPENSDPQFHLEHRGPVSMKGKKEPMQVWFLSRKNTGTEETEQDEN
T1 sequence (P19687 1-691 partner): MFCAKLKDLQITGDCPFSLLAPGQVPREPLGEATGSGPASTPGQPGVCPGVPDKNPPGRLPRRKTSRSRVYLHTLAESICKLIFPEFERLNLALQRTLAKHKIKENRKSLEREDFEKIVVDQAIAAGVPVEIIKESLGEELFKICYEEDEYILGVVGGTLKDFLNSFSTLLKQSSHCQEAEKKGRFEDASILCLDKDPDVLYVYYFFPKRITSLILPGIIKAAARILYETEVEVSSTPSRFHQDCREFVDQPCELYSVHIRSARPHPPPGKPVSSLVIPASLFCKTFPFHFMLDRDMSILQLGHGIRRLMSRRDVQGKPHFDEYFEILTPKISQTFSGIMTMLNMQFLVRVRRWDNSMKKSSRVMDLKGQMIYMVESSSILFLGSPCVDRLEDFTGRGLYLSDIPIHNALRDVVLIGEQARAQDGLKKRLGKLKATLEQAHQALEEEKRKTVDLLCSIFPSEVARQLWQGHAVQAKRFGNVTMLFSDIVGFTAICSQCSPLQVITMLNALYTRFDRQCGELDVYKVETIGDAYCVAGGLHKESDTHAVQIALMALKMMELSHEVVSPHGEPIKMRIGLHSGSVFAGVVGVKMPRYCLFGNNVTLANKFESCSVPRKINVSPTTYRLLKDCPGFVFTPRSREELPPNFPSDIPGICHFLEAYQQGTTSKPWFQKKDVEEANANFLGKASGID

With `C=Cc1c(C)c2[n]3c1C=C1N=C(C=C4N=C(C=c5c(C)c(C=C)c([n]5[Fe]3[N]=O)=C2)C(C)=C4CCC(=O)O)C(CCC(=O)O)=C1C` [NO-ferrohaem, nitrosylated ferrous protoporphyrin IX] the U46619-induced platelet aggregation ([1]; 1 nM, 10nM or 100nM added 30 seconds before 1µM U46619, Fig. 6) was “concentration-dependently prevented the aggregation”, the “inhibition of thromboxane-induced platelet aggregation” value ([1]; at low nM concentrations, human platelet-rich plasma) was “efficiently inhibits” and the “effect of methylene blue on hypotensive activity” value [2] was “prevented this NO-ferrohaem activity”. For the same compound, the vasodilating activity [3] was “direct long-lasting vasodilating activity”, the blood pressure effect [4] was “sGC-inhibitor-sensitive hypotension” and the “relaxation of pre-contracted arteries” value ([5]; 5-HT (1µM)-pre-contracted, 100nM-100µM concentration range) was “concentration-dependent relaxation”. The “effect of ODQ on the NO-ferrohaem-induced relaxation” value ([5]; plus sGC inhibitor ODQ (1µM)) was “completely reversed”.

For `C=Cc1c(C)c2[n]3c1C=C1N=C(C=C4N=C(C=c5c(C)c(C=C)c([n]5[Fe]3)=C2)C(C)=C4CCC(=O)O)C(CCC(=O)O)=C1C` [ferrohaem], the “effect on basal activity of isolated sGC” value [6] is given as “inhibits the basal activity of isolated sGC”.
